# In ChEMBL document CHEMBL5303304, “EUbOPEN Chemogenomics Library - IncuCyte” (2023):
# Tests used:
# Format in all cases: toxicity, cell-based
# HEK-293T = assay: Incucyte cell viability with HEK293T; conditions: human, 10 µM, compound concentration 10 uM
# Fibroblast = assay: Incucyte cell viability with human fibroblast; conditions: 10 µM, compound concentration 10 uM
# U2OS = assay: Incucyte cell viability with U2OS; conditions: human, 10 µM, compound concentration 10 uM
# Also: unitless GR value; below 1 slowed growth and below 0 cell loss.
Structure (SMILES),"Growth Rate (HEK-293T; 6 h, replicate number 1)","Growth Rate (HEK-293T; 12 h, replicate number 1)","Growth Rate (HEK-293T; 12 h, replicate number 2)","Growth Rate (HEK-293T; 18 h, replicate number 1)","Growth Rate (HEK-293T; 18 h, replicate number 2)","Growth Rate (HEK-293T; 24 h, replicate number 1)","Growth Rate (Fibroblast; 0 h, replicate number 1)","Growth Rate (Fibroblast; 6 h, replicate number 1)","Growth Rate (Fibroblast; 18 h, replicate number 1)","Growth Rate (Fibroblast; 24 h, replicate number 1)","Growth Rate (Fibroblast; 24 h, replicate number 2)","Growth Rate (U2OS; 0 h, replicate number 1)","Growth Rate (U2OS; 6 h, replicate number 2)","Growth Rate (U2OS; 12 h, replicate number 1)","Growth Rate (U2OS; 12 h, replicate number 2)","Growth Rate (U2OS; 18 h, replicate number 1)","Growth Rate (U2OS; 18 h, replicate number 2)","Growth Rate (U2OS; 24 h, replicate number 1)","Growth Rate (U2OS; 24 h, replicate number 2)","Growth Rate (HEK-293T; 0 h, replicate number 2)",also measured
CC(=O)NCC(=O)N1[C@@H]2CC[C@H]1c1ccc(Nc3ncc(C(F)(F)F)c(NC4CCC4)n3)cc12 [PF-03814735],-0.95,-0.89,-0.75,-0.72,-0.55,-0.57,-0.26,-1,0.52,0.86,0.08,-0.94,1,-0.05,-0.14,0.03,-0.08,0.02,-0.08,,"Growth Rate (HEK-293T; 6 h, replicate number 2): -0.94; Growth Rate (HEK-293T; 24 h, replicate number 2): -0.39; Growth Rate (Fibroblast; 12 h, replicate number 2): 0.65; Growth Rate (Fibroblast; 18 h, replicate number 2): 0.15"
CS(=O)(=O)c1ccc(-c2cnc(N)c(C(=O)Nc3ccccc3)n2)cc1,-0.29,-0.15,-0.14,0.01,-0.07,0.07,-0.93,,,0.85,0.74,,,0.87,,0.77,0.93,0.88,0.77,0.8,"Growth Rate (HEK-293T; 6 h, replicate number 2): -0.17; Growth Rate (HEK-293T; 24 h, replicate number 2): 0.05"
COc1cc(C(N)=O)ccc1Nc1ncc2c(n1)N(CCC(C)C)[C@H](C)C(=O)N2C,,,,,,0.53,-0.99,,,,0.77,-1,0.39,-0.71,0.18,0.37,0.4,-0.55,0.27,-1,"Growth Rate (HEK-293T; 0 h, replicate number 1): -0.98; Growth Rate (Fibroblast; 0 h, replicate number 2): -0.68"
CC(C)c1cnn2c(NCc3ccccc3)cc(NCCCCCCN)nc12.Cl,-0.19,0.25,0.46,0.64,0.6,0.65,,0.36,0.9,1,0.87,,0.69,0.99,0.78,0.92,0.76,0.87,0.71,,"Growth Rate (HEK-293T; 6 h, replicate number 2): -0.03; Growth Rate (HEK-293T; 24 h, replicate number 2): 0.66; Growth Rate (Fibroblast; 0 h, replicate number 2): -0.08; Growth Rate (Fibroblast; 6 h, replicate number 2): 0.27; Growth Rate (Fibroblast; 12 h, replicate number 1): 0.36; Growth Rate (Fibroblast; 12 h, replicate number 2): 0.65; Growth Rate (Fibroblast; 18 h, replicate number 2): 0.69; Growth Rate (U2OS; 0 h, replicate number 2): 0.64"
O=S(=O)(Nc1nncs1)c1cc(Cl)c(Oc2ccc(C(F)(F)F)cc2-c2ccnn2C2CNC2)cc1F,0.2,,,,,,,,0.41,,,0.61,0.95,,,0.95,1,0.86,0.98,,"Growth Rate (U2OS; 0 h, replicate number 2): -0.77"
CC[C@](C)(O)C#Cc1cc2c(ccn2-c2cc(OC)nc(N)n2)cn1,-0.14,0.4,,0.76,,0.84,-0.3,-0.12,0.63,,0.83,,,,,,,,,0.37,"Growth Rate (HEK-293T; 6 h, replicate number 2): 0.55; Growth Rate (Fibroblast; 12 h, replicate number 1): -1; Growth Rate (U2OS; 0 h, replicate number 2): -0.28"
CN(C)CCC[C@@]1(c2ccc(F)cc2)OCc2cc(C#N)ccc21 [ESCITALOPRAM],,0.84,0.97,0.56,0.59,0.6,-1,0.67,0.69,0.84,0.74,0.18,,1,,,,0.9,,0.57,"Growth Rate (HEK-293T; 0 h, replicate number 1): -0.16; Growth Rate (Fibroblast; 18 h, replicate number 2): 0.85; Growth Rate (U2OS; 6 h, replicate number 1): 0.62"
O=C(O)CNC(=O)c1c(O)c2ccccc2n(Cc2ccccc2)c1=O,,,0.91,,0.99,,,,,,,0.29,0.74,0.92,0.94,0.86,0.9,,0.97,-0.1,"Growth Rate (HEK-293T; 0 h, replicate number 1): -0.08; Growth Rate (HEK-293T; 24 h, replicate number 2): 0.93; Growth Rate (Fibroblast; 0 h, replicate number 2): 0.56; Growth Rate (Fibroblast; 6 h, replicate number 2): 0.61; Growth Rate (Fibroblast; 12 h, replicate number 1): 0.75; Growth Rate (Fibroblast; 12 h, replicate number 2): 0.68; Growth Rate (Fibroblast; 18 h, replicate number 2): 0.94; Growth Rate (U2OS; 0 h, replicate number 2): 0.34"
CN(C)CC#Cc1ccc2[nH]c3c(c2c1)-c1nc(N)ncc1CCC3,-0.19,-0.03,-0.38,0.11,-0.23,0.12,-1,0.76,0.27,0.2,0.33,-0.89,0.82,0.96,0.59,0.86,0.45,0.86,0.36,0.54,"Growth Rate (HEK-293T; 0 h, replicate number 1): -0.2; Growth Rate (HEK-293T; 6 h, replicate number 2): -0.58; Growth Rate (HEK-293T; 24 h, replicate number 2): -0.05; Growth Rate (Fibroblast; 12 h, replicate number 1): 0.45; Growth Rate (Fibroblast; 12 h, replicate number 2): 0.69; Growth Rate (Fibroblast; 18 h, replicate number 2): 0.42"
CNC(=O)COc1cc2cc(Nc3nc(N4C[C@H](C)C[C@H](C)C4)ncc3Cl)ccc2n(C)c1=O,,,,,,,,0.72,0.7,0.99,,,,,0.85,0.92,,0.95,,0.7,"Growth Rate (HEK-293T; 0 h, replicate number 1): 0.06; Growth Rate (Fibroblast; 0 h, replicate number 2): -0.82; Growth Rate (Fibroblast; 12 h, replicate number 1): 0.96; Growth Rate (U2OS; 0 h, replicate number 2): 0.58; Growth Rate (U2OS; 6 h, replicate number 1): 0.85"
